According to patent publication US20230105082A1, “ANTIMICROBIAL COMPOSITIONS FOR PET FOOD PRODUCTS” (priority 2020, published 2023):

System: mixture in equal parts of Salmonella ser. Newport, Salmonella ser. Senftenberg, and Salmonella ser. Typhimurium
Experiment: Salmonella inhibition in inoculated poultry fat (Examples 2, 4 and 5)
Type: cell-based, Salmonella enterica subsp. enterica
Conditions: 1000 ppm in fat; 1 month after inoculation
Excerpt: Bacterial strains and culture medium Six serovars of Salmonella enterica subsp. enterica were used in these studies: Salmonella ser. Infantis (CIP103549), Salmonella ser. Mbandaka (CIP105859), and Salmonella ser. Senftenberg (isolate from pork/poultry from ANSES collection) for Example 1, Example 3 and Example 6 or Salmonella ser. Newport, Salmonella ser. Senftenberg, and Salmonella ser. Typhimurium (all isolated from pet food) for Example 2, Example 4, and Example 5. All strains were kept in collection at -80° C. in glycerol broth. Bacterial strains were cultured in Brain Heart Infusion agar and subcultured in Brain Heart Infusion broth at 37° C. for 20±2 h (BHI, VWR, USA). Salmonella count in poultry fat was carried out using Xylose Lysine Deoxycholate agar (XLD, VWR, USA) for Example 1, Example 3, and Example 6 or Violet Red Bile Glucose agar (VRBG, BioRad, USA) for Example 2, Example 4 and Example 5. Salmonella detection was done following modified EN ISO 6579-1 in 125 g of poultry fat.
Inoculum preparation Two types of matrix inoculum were used. […]
Antimicrobial efficacy of Compositions 5, 6, 7, 8, 16 was tested when added at 500 ppm in fat and compared to antimicrobial efficacy of phosphoric acid (Composition 1) when added at 1000 ppm in fat. The antimicrobial efficacy of Composition 16 at 1000 ppm in fat was also evaluated. […]

Question: How did the Salmonella detection turn out when O=P(O)(O)O [Composition 1, Phosphoric acid] was run?
Answer: still detected
